EC50 data for 27 compounds are collected here from patent US11951094B2, “TLR2 modulator compounds, pharmaceutical compositions and uses thereof” (Axial Therapeutics, Inc., priority 2020, dated 2024).

Structures are written as SMILES. Where a name gives a salt, the structure may show the parent alone.

TLR2, sequence (O60603 21-784): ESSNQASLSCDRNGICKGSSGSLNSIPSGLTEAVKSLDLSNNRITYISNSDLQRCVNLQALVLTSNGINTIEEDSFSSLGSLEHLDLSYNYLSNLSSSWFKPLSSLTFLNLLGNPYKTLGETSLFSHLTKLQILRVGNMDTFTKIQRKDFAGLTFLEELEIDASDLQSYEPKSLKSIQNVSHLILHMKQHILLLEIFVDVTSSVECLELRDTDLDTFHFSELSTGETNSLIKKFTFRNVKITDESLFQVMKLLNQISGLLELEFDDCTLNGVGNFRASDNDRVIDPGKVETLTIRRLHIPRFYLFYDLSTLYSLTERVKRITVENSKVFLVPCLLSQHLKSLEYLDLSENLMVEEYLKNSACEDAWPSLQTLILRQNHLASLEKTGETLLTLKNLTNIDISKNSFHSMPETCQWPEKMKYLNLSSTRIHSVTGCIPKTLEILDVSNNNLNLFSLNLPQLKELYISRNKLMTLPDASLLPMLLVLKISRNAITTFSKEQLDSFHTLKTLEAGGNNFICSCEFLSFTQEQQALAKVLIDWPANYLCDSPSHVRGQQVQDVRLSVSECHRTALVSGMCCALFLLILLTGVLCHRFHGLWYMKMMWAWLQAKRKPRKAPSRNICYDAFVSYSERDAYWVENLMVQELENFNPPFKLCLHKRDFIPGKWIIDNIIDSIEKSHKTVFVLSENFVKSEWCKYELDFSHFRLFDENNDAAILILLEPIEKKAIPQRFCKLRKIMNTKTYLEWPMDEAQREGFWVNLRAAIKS

This test addresses TLR2 (Homo sapiens, UniProt O60603). Description: TLR2 agonist screening assay, HEK-Blue TLR2 reporter cell line (NF-kB-driven SEAP, absorbance at 600 nm). As to conditions: HEK-Blue TLR2 reporter cells, agonist mode; average of all runs (Table 3). On the set-up: host or cells: HEK-293 (HEK-Blue TLR2 reporter cell line). In kind it is cell-based. The procedure, abridged:
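EC50 values come from 600 nm absorbance of SEAP-converted substrate after overnight agonist exposure. The reporter line was HEK-293 engineered with TLR2 and an NF-kB-SEAP construct, seeded at about 40,000 cells per well 16-24 h beforehand. Compounds were added at 1% final DMSO.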
With `CCCCCCNC(=O)[C@H](CNC(=O)CCCCCC)NC(=O)c1ccc(C(=O)N2C[C@@H](C(=O)N[C@H]3C[C@@H]3c3ccccc3)[C@H](C(=O)N[C@H]3C[C@@H]3c3ccccc3)C2)cc1` [Compound 015], the EC50 was greater than 1000 nM.

Consider `CCCCCCCOC1CN(C(=O)c2ccc(C(=O)N3C[C@@H](C(=O)N[C@H]4C[C@@H]4c4ccccc4)[C@H](C(=O)N[C@H]4C[C@@H]4c4ccccc4)C3)cc2)C[C@H]1OCCCCCCC` (stereo partly drawn) [Compound 016], for which the EC50 is greater than 1000 nM.

For `CCCCCCNC(=O)[C@H](CCNC(=O)c1ccc(C(=O)N2C[C@@H](C(=O)N[C@H]3C[C@@H]3c3ccccc3)[C@H](C(=O)N[C@H]3C[C@@H]3c3ccccc3)C2)cc1)NC(=O)CCCCCC` [Compound 017], the EC50 was greater than 1000 nM.

Compound `CCCCCCCCN1CCN(C(=O)c2ccc(C(=O)N3C[C@@H](C(=O)N[C@H]4C[C@@H]4c4ccccc4)[C@H](C(=O)N[C@H]4C[C@@H]4c4ccccc4)C3)cc2)CC1C(=O)NCCCCCC` (stereo partly drawn) [Compound 018, (3S,4S)-1-(4-(3-(hexylcarbamoyl)-4-octylpiperazine-1-carbonyl)benzoyl)-N3,N4-bis((1S,2R)-2-phenylcyclopropyl)pyrrolidine-3,4-dicarboxamide formate] displayed an EC50 of 351 to 1000 nM.

`CCCCCCCC(=O)N1CCN(C(=O)c2ccc(C(=O)N3C[C@@H](C(=O)N[C@H]4C[C@@H]4c4ccccc4)[C@H](C(=O)N[C@H]4C[C@@H]4c4ccccc4)C3)cc2)CC1C(=O)NCCCCCC` (stereo partly drawn) [Compound 019, (3S,4S)-1-(4-(3-(hexylcarbamoyl)-4-octanoylpiperazine-1-carbonyl)benzoyl)-N3,N4-bis((1S,2R)-2-phenylcyclopropyl)pyrrolidine-3,4-dicarboxamide]: the EC50 was 0.1 to 50 nM.

For the compound `CCCCCCCCOC1CN(C(=O)c2ccc(C(=O)N3C[C@@H](C(=O)N[C@H]4C[C@@H]4c4ccccc4)[C@H](C(=O)N[C@H]4C[C@@H]4c4ccccc4)C3)cc2)C[C@H]1OCCCCCCCC` (stereo partly drawn) [Compound 020], the EC50 is greater than 1000 nM.

`CCCCCCNC(=O)[C@H](CCNC(=O)CCCCCC)NC(=O)c1ccc(C(=O)N2C[C@@H](C(=O)N[C@H]3C[C@@H]3c3ccccc3)[C@H](C(=O)N[C@H]3C[C@@H]3c3ccccc3)C2)cc1` [Compound 021] gave an EC50 greater than 1000 nM.

In turn, `CCCCCN(CCCCC)C(=O)[C@H]1CCN(C(=O)c2ccc(C(=O)N3C[C@@H](C(=O)N[C@H]4C[C@@H]4c4ccccc4)[C@H](C(=O)N[C@H]4C[C@@H]4c4ccccc4)C3)cc2)C1` [Compound 022] registered an EC50 greater than 1000 nM.

For the compound `CCCCCCCCCCCCCCNC(=O)C1CN(C(=O)c2ccc(C(=O)N3C[C@@H](C(=O)N[C@H]4C[C@@H]4c4ccccc4)[C@H](C(=O)N[C@H]4C[C@@H]4c4ccccc4)C3)cc2)CCN1C` (stereo partly drawn) [Compound 023, (3S,4S)-1-(4-(4-methyl-3-(tetradecylcarbamoyl)piperazine-1-carbonyl)benzoyl)-N3,N4-bis((1S,2R)-2-phenylcyclopropyl)pyrrolidine-3,4-dicarboxamide formate], the EC50 lay in the range of 0.1 to 50 nM.

`CCCCCCCCCCCCCCNC(=O)[C@@H]1CN(C(=O)c2ccc(C(=O)N3C[C@@H](C(=O)N[C@H]4C[C@@H]4c4ccccc4)[C@H](C(=O)N[C@H]4C[C@@H]4c4ccccc4)C3)cc2)C[C@H]1NC(C)=O` [Compound 028, (3S,4S)-1-(4-((3S,4R)-3-acetamido-4-(tetradecylcarbamoyl)pyrrolidine-1-carbonyl)benzoyl)-N3,N4-bis((1S,2R)-2-phenylcyclopropyl)pyrrolidine-3,4-dicarboxamide] had an EC50 of 51 to 350 nM.

Take `CCCCCCNC(=O)[C@H]1CN(C(=O)c2ccc(C(=O)N3C[C@@H](C(=O)N[C@H]4C[C@@H]4c4ccccc4)[C@H](C(=O)N[C@H]4C[C@@H]4c4ccccc4)C3)cc2)C[C@@H]1C(=O)NCCCCCC` [Compound 029]: the EC50 lay in the range of 51 to 350 nM.

On to `CCCCCCCC(=O)N1CCN(C(=O)c2ccc(C(=O)N3C[C@@H](C(=O)N[C@H]4C[C@@H]4c4ccccc4)[C@H](C(=O)N[C@H]4C[C@@H]4c4ccccc4)C3)cc2)C[C@H]1C(=O)NCCCCCC` [Compound 030], for which the EC50 is greater than 1000 nM.

In the case of `CCCCCCCCN1CCN(C(=O)c2ccc(C(=O)N3C[C@@H](C(=O)N[C@H]4C[C@@H]4c4ccccc4)[C@H](C(=O)N[C@H]4C[C@@H]4c4ccccc4)C3)cc2)C[C@H]1C(=O)NCCCCCC` [Compound 031], the EC50 was greater than 1000 nM.

The compound `CCCCCCNC(=O)[C@@H]1CN(C(=O)c2ccc(C(=O)N3C[C@@H](C(=O)N[C@H]4C[C@@H]4c4ccccc4)[C@H](C(=O)N[C@H]4C[C@@H]4c4ccccc4)C3)cc2)C[C@H]1C(=O)NCCCCCC` [Compound 035] returned an EC50 of 0.1 to 50 nM.

In the case of `CCCCCCCCN1CCN(C(=O)c2ccc(C(=O)N3C[C@@H](C(=O)N[C@H]4C[C@@H]4c4ccccc4)[C@H](C(=O)N[C@H]4C[C@@H]4c4ccccc4)C3)cc2)C[C@@H]1C(=O)NCCCCCC` [Compound 037, (3S,4S)-1-(4-((R)-3-(hexylcarbamoyl)-4-octylpiperazine-1-carbonyl)benzoyl)-N3,N4-bis((1S,2R)-2-phenylcyclopropyl)pyrrolidine-3,4-dicarboxamide formate], the EC50 was in the range of 51 to 350 nM.

`CCCCCCNC(=O)[C@@H]1CN(C(=O)c2ccc(C(=O)N3C[C@@H](C(=O)N[C@H]4C[C@@H]4c4ccccc4)[C@H](C(=O)N[C@H]4C[C@@H]4c4ccccc4)C3)cc2)C[C@H]1NC(=O)CCCCCC` [Compound 039] had an EC50 greater than 1000 nM.

With `CCCCCCCC(=O)N1CCN(C(=O)c2ccc(C(=O)N3C[C@@H](C(=O)N[C@H]4C[C@@H]4c4ccccc4)[C@H](C(=O)N[C@H]4C[C@@H]4c4ccccc4)C3)cc2)CC1C(=O)N[C@H]1C[C@@H]1c1ccccc1` (stereo partly drawn) [Compound 040], the concentration for a half-maximal effect (EC50) was greater than 1000 nM.

`CCCCCCNC(=O)C1CN(C(=O)c2ccc(C(=O)N3C[C@@H](C(=O)N[C@H]4C[C@@H]4c4ccccc4)[C@H](C(=O)N[C@H]4C[C@@H]4c4ccccc4)C3)cc2)CCN1C(=O)CCc1ccc(F)cc1` (stereo partly drawn) [Compound 041, (3S,4S)-1-(4-(4-(3-(4-fluorophenyl)propanoyl)-3-(hexylcarbamoyl)piperazine-1-carbonyl)benzoyl)-N3,N4-bis((1S,2R)-2-phenylcyclopropyl)pyrrolidine-3,4-dicarboxamide] gave an EC50 of 351 to 1000 nM.

Regarding `CCCCCCNC(=O)C1CN(C(=O)c2ccc(C(=O)N3C[C@@H](C(=O)N[C@H]4C[C@@H]4c4ccccc4)[C@H](C(=O)N[C@H]4C[C@@H]4c4ccccc4)C3)cc2)CCN1` (stereo partly drawn) [Compound 042, (3S,4S)-1-(4-(3-(hexylcarbamoyl)piperazine-1-carbonyl)benzoyl)-N3,N4-bis((1S,2R)-2-phenylcyclopropyl)pyrrolidine-3,4-dicarboxamide formate], the EC50 was 351 to 1000 nM.

In turn, `CCCCCCNC(=O)[C@@H]1C[C@@H](C(=O)NCCCCCC)CN(C(=O)c2ccc(C(=O)N3C[C@@H](C(=O)N[C@H]4C[C@@H]4c4ccccc4)[C@H](C(=O)N[C@H]4C[C@@H]4c4ccccc4)C3)cc2)C1` [Compound 043] had an EC50 greater than 1000 nM.

Compound `CCCCCCCS(=O)(=O)N1CCN(C(=O)c2ccc(C(=O)N3C[C@@H](C(=O)N[C@H]4C[C@@H]4c4ccccc4)[C@H](C(=O)N[C@H]4C[C@@H]4c4ccccc4)C3)cc2)CC1C(=O)NCCCCCC` (stereo partly drawn) [Compound 047] returned an EC50 greater than 1000 nM.

Compound `CCCCCCCC(=O)N1CCN(C(=O)c2ccc(C(=O)N3C[C@@H](C(=O)N[C@H]4C[C@@H]4c4ccccc4)[C@H](C(=O)N[C@H]4C[C@@H]4c4ccccc4)C3)cc2)CC1C(=O)NCC` (stereo partly drawn) [Compound 048, (3S,4S)-1-(4-(3-(ethylcarbamoyl)-4-octanoylpiperazine-1-carbonyl)benzoyl)-N3,N4-bis ((1S,2R)-2-phenylcyclopropyl) pyrrolidine-3,4-dicarboxamide] had an EC50 of 351 to 1000 nM.

With `CCCCCCNC(=O)C1CN(C(=O)c2ccc(C(=O)N3C[C@@H](C(=O)N[C@H]4C[C@@H]4c4ccccc4)[C@H](C(=O)N[C@H]4C[C@@H]4c4ccccc4)C3)cc2)CCN1C(=O)NCCCCCC` (stereo partly drawn) [Compound 049], the EC50 is greater than 1000 nM.

As for `CCCCCCNC(=O)C1CN(C(=O)c2ccc(C(=O)N3C[C@@H](C(=O)N[C@H]4C[C@@H]4c4ccccc4)[C@H](C(=O)N[C@H]4C[C@@H]4c4ccccc4)C3)cc2)CCN1C(=O)CCCCC` (stereo partly drawn) [Compound 050, (3S,4S)-1-(4-(4-hexanoyl-3-(hexylcarbamoyl)piperazine-1-carbonyl)benzoyl)-N3,N4-bis((1S,2R)-2-phenylcyclopropyl)pyrrolidine-3,4-dicarboxamide], the EC50 was in the range of 51 to 350 nM.

`CCCCCCCCC(=O)N1CCN(C(=O)c2ccc(C(=O)N3C[C@@H](C(=O)N[C@H]4C[C@@H]4c4ccccc4)[C@H](C(=O)N[C@H]4C[C@@H]4c4ccccc4)C3)cc2)CC1C(=O)NCCCCCC` (stereo partly drawn) [Compound 051, (3S,4S)-1-(4-(3-(hexylcarbamoyl)-4-nonanoylpiperazine-1-carbonyl)benzoyl)-N3,N4-bis((1S,2R)-2-phenylcyclopropyl)pyrrolidine-3,4-dicarboxamide] returned an EC50 of 0.1 to 50 nM.

`CCCCCCCC(=O)N1CCN(C(=O)c2ccc(C(=O)N3C[C@@H](C(=O)N[C@H]4C[C@@H]4c4ccccc4)[C@H](C(=O)N[C@H]4C[C@@H]4c4ccccc4)C3)cc2)CC1C(=O)NCCCCC` (stereo partly drawn) [Compound 052, (3S,4S)-1-(4-(4-octanoyl-3-(pentylcarbamoyl)piperazine-1-carbonyl)benzoyl)-N3,N4-bis((1S,2R)-2-phenylcyclopropyl)pyrrolidine-3,4-dicarboxamide]: the EC50 is 0.1 to 50 nM.

Consider `CCCCCCNC(=O)C1CN(C(=O)c2ccc(C(=O)N3C[C@@H](C(=O)N[C@H]4C[C@@H]4c4ccccc4)[C@H](C(=O)N[C@H]4C[C@@H]4c4ccccc4)C3)cc2)CCN1C(=O)CCC` (stereo partly drawn) [Compound 055, (3S,4S)-1-(4-(4-butyryl-3-(hexylcarbamoyl)piperazine-1-carbonyl)benzoyl)-N3,N4-bis((1S,2R)-2-phenylcyclopropyl)pyrrolidine-3,4-dicarboxamide], for which the concentration giving a half-maximal response (EC50) lay within 351 to 1000 nM.

What is called EC50 is the concentration that produces a half-maximal response. The low end stands for greater potency, the high end for weaker potency.
